“And” between values parts separate entries of the source, which are not always exact repeats. Equal values may be shown once.
Tested on: WT C57Bl/6J mice
Experiment: Urine amino acid excretion in WT C57Bl/6J mice after JN-170
Assay type: in vivo, mouse
Design: urine Gln excretion / urine Phe excretion: unit not given here
Details: for 12 hour urine Arg (Fig 2b) / 12 hour urine Gln (Fig 2b) / 12 hour urine Glu (Fig 2b) / 12 hour urine His (Fig 2b) / 12 hour urine Lys (Fig 2b) / 12 hour urine Met (Fig 2b) / 12 hour urine Phe (Fig 2b) / 12 hour urine Pro (Fig 2b) / 12 hour urine Ser (Fig 2b) / 12 hour urine Thr (Fig 2b) / 12 hour urine Trp (Fig 2b) / 12 hour urine Tyr (Fig 2b): individual mice
Protocol: Male homozygous BTBR-Pah<enu2>/J (Pah^enu2) aged 10–13 weeks were purchased from Jackson Laboratory (no. 002232). Immediately before dosing, each animal’s bladder was manually emptied and a plasma sample was drawn. Animals were dosed by oral gavage with vehicle (10% DMSO, 20% 2-hydroxypropyl-β-cyclodextrin [Sigma-Aldrich]) followed by a 1-week washout prior to dosing with JN-170 at doses ranging from 50 to 250 mg/kg. Following dosing with vehicle or JN-170, animals were individually placed in metabolic cages to collect urine samples. After collection of each urine sample, cages were rinsed with ultra-pure water to recover residual analytes. Blood samples were collected predose as well as 1, 3, 8, 12, and 24 hours after dosing with vehicle or JN-170 into tubes with EDTA as a […], and plasma was separated by centrifuging samples at 2,200g for 5 minutes at 4°C. Throughout the study, mice had access to food and water ad libitum. Plasma and urine samples were stored at –80°C until processing.Ten-week-old male WT C57Bl/6J animals (Si Bei Fu Laboratory Animal Technology Co. Ltd.) were dosed either with vehicle or 50–250 mg/kg JN-170 by oral gavage and blood and urine samples were collected as described. All animals had unrestricted access to food and water during the study; C57Bl/6J were kept on rodent maintenance diet from Beijing Keao Xieli, Pah^enu2 mice were kept on Teklad diet no. T.2018.
Urine and cage-wash samples were vortexed and centrifuged at 3,700g for 5 minutes to remove any solid precipitate. Neat samples and samples diluted 1:10 in water were further diluted 1:10 in crash solution (75% acetonitrile 25% methanol, 0.1% formic acid, 5 mM heavy labeled amino acids) to precipitate proteins. Samples were centrifuged at 3,700g for 5 minutes before the supernatant was transferred into an injection plate. Urine amino acid analysis was carried out using a quadrupole time of flight (QToF) LC-mass spectrometry (QToF-LC-MS) bioanalytical method. A standard curve of 1 mM down to 0.06 μM was used as the calibration curve to which samples were quantified. The amino acid concentrations were calculated with a 1/×2 linear regression over a concentration range of 60 nM to 1,000 μM of the individual amino acids. An Agilent QToF 6545 was operated in an accurate mass full scan range of 100–1,700 m/z positive ions formed by electrospray ionization with a normal phase HILIC chromatographic method. An Agilent InfinityLab Poroshell 120 HILIC-Z, 2.1 × 150 mm, 2.7 μm was used as the analytical column with 10 mM Ammonium Acetate in 0.1% FA as mobile phase A and 10 mM Ammonium Acetate in 95% ACN, 0.1% FA as mobile phase B. At a flow rate of 0.25 mL/min, the binary gradient increased from an initial 100% phase B to 90% phase B over 3 minutes. After 1.5 minutes, the gradient ramped to 80% mobile phase B. At 5.6 minutes into the gradient, mobile phase B ramped from 60% to 0% and held for 2 minutes before returning to initial conditions at 7.5 minutes. The gradient was stopped at 10 minutes.Total urine amino acid amounts were calculated by multiplying urine amino acid concentrations by the urine volume and adding the amount of amino acid recovered in the cage wash, which was calculated by multiplying the cage wash amino acid concentration by the cage wash volume.

[1] = Fig S3b, WT mice, individual animals
[2] = WT mice, 0–3 hours after 200 mg/kg

N#Cc1ccc(-c2noc([C@]3(C(F)(F)F)CCN(C(=O)NCCC4(N)CC4)C3)n2)cc1 [JN-170]
12 hour urine Arg (Fig 2b) (50 mg/kg single oral dose): 42.35 µg and 21.61 µg and 86.86 µg and 32.17 µg and 60.46 µg and 54.76 µg | 12 hour urine Gln (Fig 2b) (50 mg/kg single oral dose): 1216.88 µg and 424.1 µg and 3207.04 µg and 1668.39 µg and 2208.59 µg and 1050.68 µg | 12 hour urine Glu (Fig 2b) (50 mg/kg single oral dose): 29.83 µg and 17.33 µg and 39.89 µg and 30.41 µg and 48.52 µg and 28.91 µg | 12 hour urine His (Fig 2b) (50 mg/kg single oral dose): 99.8 µg and 39.7 µg and 232.38 µg and 133.78 µg and 173.51 µg and 97.64 µg | 12 hour urine Lys (Fig 2b) (50 mg/kg single oral dose): 34.24 µg and 15.87 µg and 87.69 µg and 25.64 µg and 70.14 µg and 37.6 µg | 12 hour urine Met (Fig 2b) (50 mg/kg single oral dose): 22.43 µg and 9.44 µg and 86.47 µg and 39.61 µg and 54.33 µg | 12 hour urine Phe (Fig 2b) (50 mg/kg single oral dose): 9.69 µg and 12.9 µg and 44.78 µg and 18.25 µg and 46.82 µg and 10.07 µg | 12 hour urine Pro (Fig 2b) (50 mg/kg single oral dose): 8.47 µg and 4.8 µg and 12.9 µg and 9.81 µg and 24.06 µg and 10.26 µg | 12 hour urine Ser (Fig 2b) (50 mg/kg single oral dose): 30.76 µg and 12.92 µg and 98.91 µg and 47.01 µg and 97.58 µg and 29.03 µg | 12 hour urine Thr (Fig 2b) (50 mg/kg single oral dose): 158.71 µg and 83.75 µg and 358.72 µg and 229.83 µg and 330.77 µg and 183.12 µg | 12 hour urine Trp (Fig 2b) (50 mg/kg single oral dose): 7.91 µg and 4.53 µg and 17.51 µg and 12.59 µg and 19.36 µg and 8.39 µg | 12 hour urine Tyr (Fig 2b) (50 mg/kg single oral dose): 86.45 µg and 42.23 µg and 289.76 µg and 150.67 µg and 234.77 µg and 101.34 µg | 12 hour urine Arg (Fig 2b) (100 mg/kg single oral dose): 84.18 µg and 60.05 µg and 104.07 µg and 105.27 µg and 46.38 µg and 44.86 µg | 12 hour urine Gln (Fig 2b) (100 mg/kg single oral dose): 3618.3 µg and 3716.4 µg and 5677.3 µg and 3847.03 µg and 3083.95 µg and 2876.64 µg | 12 hour urine Glu (Fig 2b) (100 mg/kg single oral dose): 46.32 µg and 46.97 µg and 58.94 µg and 50.51 µg and 40.88 µg and 28.49 µg | 12 hour urine His (Fig 2b) (100 mg/kg single oral dose): 295.94 µg and 255.87 µg and 436.69 µg and 286 µg and 268.58 µg and 216 µg | 12 hour urine Lys (Fig 2b) (100 mg/kg single oral dose): 113.28 µg and 69.96 µg and 170.84 µg and 119.16 µg and 64.12 µg and 61.63 µg | 12 hour urine Met (Fig 2b) (100 mg/kg single oral dose): 69.6 µg and 61.3 µg and 109.16 µg and 65.46 µg and 59.17 µg and 56.84 µg | 12 hour urine Phe (Fig 2b) (100 mg/kg single oral dose): 57.79 µg and 56.42 µg and 118.09 µg and 57.72 µg and 36.93 µg and 35.59 µg | 12 hour urine Pro (Fig 2b) (100 mg/kg single oral dose): 8.92 µg and 10.04 µg and 30.88 µg and 13.13 µg and 10.09 µg and 9.04 µg | 12 hour urine Ser (Fig 2b) (100 mg/kg single oral dose): 108.24 µg and 109.95 µg and 223.3 µg and 89.79 µg and 97.93 µg and 80.73 µg | 12 hour urine Thr (Fig 2b) (100 mg/kg single oral dose): 506.96 µg and 408.61 µg and 713.8 µg and 526.01 µg and 450.28 µg and 363.04 µg | 12 hour urine Trp (Fig 2b) (100 mg/kg single oral dose): 23.65 µg and 18.61 µg and 32.89 µg and 21.7 µg and 20.33 µg and 13.52 µg | 12 hour urine Tyr (Fig 2b) (100 mg/kg single oral dose): 347.53 µg and 292.84 µg and 493.76 µg and 286.11 µg and 269.6 µg and 215.7 µg | 12 hour urine Arg (Fig 2b) (200 mg/kg single oral dose): 57.75 µg and 78.23 µg and 75.91 µg and 43.73 µg and 83.72 µg and 75.77 µg | 12 hour urine Gln (Fig 2b) (200 mg/kg single oral dose): 4199.73 µg and 4322.77 µg and 4076.82 µg and 4061.16 µg and 5861.18 µg and 4643.5 µg | 12 hour urine Glu (Fig 2b) (200 mg/kg single oral dose): 38.45 µg and 57.79 µg and 49.69 µg and 35.38 µg and 50.26 µg and 67.43 µg | 12 hour urine His (Fig 2b) (200 mg/kg single oral dose): 416.82 µg and 349.23 µg and 335.84 µg and 309.72 µg and 451.38 µg and 370.2 µg | 12 hour urine Lys (Fig 2b) (200 mg/kg single oral dose): 104.5 µg and 123.16 µg and 131.26 µg and 79.18 µg and 151.5 µg and 70.63 µg | 12 hour urine Met (Fig 2b) (200 mg/kg single oral dose): 123.47 µg and 86.31 µg and 49.16 µg and 59.08 µg and 101.09 µg and 139.58 µg | 12 hour urine Phe (Fig 2b) (200 mg/kg single oral dose): 133.44 µg and 84.26 µg and 51.41 µg and 40.35 µg and 175.28 µg and 83.35 µg | 12 hour urine Pro (Fig 2b) (200 mg/kg single oral dose): 13.11 µg and 14.35 µg and 18.33 µg and 8.21 µg and 20.58 µg and 15.61 µg | 12 hour urine Ser (Fig 2b) (200 mg/kg single oral dose): 170.69 µg and 159.37 µg and 110.1 µg and 92.34 µg and 194.17 µg and 159.84 µg | 12 hour urine Thr (Fig 2b) (200 mg/kg single oral dose): 631.21 µg and 617.4 µg and 618.83 µg and 576.45 µg and 832.11 µg and 699.79 µg | 12 hour urine Trp (Fig 2b) (200 mg/kg single oral dose): 40.01 µg and 30.26 µg and 27.35 µg and 18.62 µg and 33.13 µg and 31.85 µg | 12 hour urine Tyr (Fig 2b) (200 mg/kg single oral dose): 480.66 µg and 434.44 µg and 355.04 µg and 315.96 µg and 607.88 µg and 491.56 µg | 12 hour urine Arg (Fig 2b) (250 mg/kg single oral dose): 80.65 µg and 55.84 µg and 88.5 µg and 63.14 µg and 86.48 µg and 72.88 µg | 12 hour urine Gln (Fig 2b) (250 mg/kg single oral dose): 7107.31 µg and 3727.75 µg and 5603.56 µg and 4267.69 µg and 6411.47 µg and 5312.07 µg | 12 hour urine Glu (Fig 2b) (250 mg/kg single oral dose): 72.56 µg and 44.09 µg and 57.4 µg and 37.58 µg and 54.56 µg and 45.85 µg | 12 hour urine His (Fig 2b) (250 mg/kg single oral dose): 551.64 µg and 312.28 µg and 484.93 µg and 357.16 µg and 531.6 µg and 380.26 µg | 12 hour urine Lys (Fig 2b) (250 mg/kg single oral dose): 195.46 µg and 113.58 µg and 174.58 µg and 158.8 µg and 185.91 µg and 135.3 µg | 12 hour urine Met (Fig 2b) (250 mg/kg single oral dose): 187.74 µg and 68.61 µg and 113.61 µg and 89.08 µg and 102.86 µg and 165.83 µg | 12 hour urine Phe (Fig 2b) (250 mg/kg single oral dose): 183.47 µg and 73.49 µg and 113.19 µg and 97.89 µg and 98.25 µg and 112.7 µg | 12 hour urine Pro (Fig 2b) (250 mg/kg single oral dose): 23.91 µg and 11.83 µg and 17.19 µg and 13.18 µg and 15.23 µg and 18.44 µg | 12 hour urine Ser (Fig 2b) (250 mg/kg single oral dose): 292.3 µg and 114.91 µg and 195.78 µg and 144.05 µg and 202.42 µg and 201.61 µg | 12 hour urine Thr (Fig 2b) (250 mg/kg single oral dose): 952.09 µg and 536.61 µg and 931.14 µg and 639.81 µg and 964.07 µg and 684.47 µg | 12 hour urine Trp (Fig 2b) (250 mg/kg single oral dose): 51.77 µg and 27.86 µg and 38.14 µg and 35.4 µg and 37.19 µg and 32.26 µg | 12 hour urine Tyr (Fig 2b) (250 mg/kg single oral dose): 668.76 µg and 364.7 µg and 555.89 µg and 445.94 µg and 662.56 µg and 523.46 µg | increase in urinary Gln excretion vs vehicle (250 mg/kg, 12 h urine): 84 fold | increase in urinary His excretion vs vehicle (250 mg/kg, 12 h urine): 32 fold | increase in urinary Thr excretion vs vehicle (250 mg/kg, 12 h urine): 29 fold | urinary Gln excretion, mean ± SD (250 mg/kg, 12 h urine): 5,405 ± 1270 μg | urinary His excretion, mean ± SD (250 mg/kg, 12 h urine): 436 ± 100 µg | urinary Thr excretion, mean ± SD (250 mg/kg, 12 h urine): 785 ± 187 µg | urinary Pro excretion, mean ± SD (250 mg/kg, 12 h urine, effect negligible): 17 ± 4 µg | urine Gln excretion [1]: 1587.77 and 1811.58 and 1136.33 and 1371.1 and 1542.95 and 797.75 | urine Phe excretion [1]: 31.41 and 35.2 and 15.95 and 12.69 and 89.66 and 34.45 | glutamine excreted in urine, mean ± SD [2]: 1,375 ± 362 μg | urinary excretion of Phe, mean ± SD [2]: 37 ± 28 µg
